Results taken from US20180045715A1, “STRUCTURE AND FUNCTION OF THE SALICYCLIC ACID BINDING SITES ON HUMAN HMGB1 AND METHODS OF USE THEREOF FOR THE RATIONAL DESIGN OF BOTH SALICYCLIC ACID DERIVATIVES AND OTHER AGENTS THAT ALTER ANIMAL AND PLANT HMGBS ACTIVITIES” (Boyce Thompson Institute for Plant Research, Inc., priority 2015, published 2018).
Where two headings read alike, the source gives them in different places.

Tests used:
R50A/K54A mutant AtHMGB3 [1] = biological target: T1, R50A/K54A mutant AtHMGB3 (Arabidopsis thaliana, UniProt P93047, K54A/R50A); experiment: MAPK activation assay with mutant R50A/K54A AtHMGB3; conditions: in vivo
T1 construct: providing a full length Arabidopsis thaliana HMGB1 or HMGB3 (AtHMGB1 or AtHMGB3) protein; made in house
T1 sequence (P93047 whole entry R50A/K54A): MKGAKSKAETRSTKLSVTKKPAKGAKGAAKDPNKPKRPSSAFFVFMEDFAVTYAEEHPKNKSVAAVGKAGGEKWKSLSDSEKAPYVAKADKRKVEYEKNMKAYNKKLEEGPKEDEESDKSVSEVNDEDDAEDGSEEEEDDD
Description: To detect the phosphorylation of Arabidopsis MAPKs (MPK3/4/6), 3 to 4 week-old soil grown Arabidopsis leaves were infiltrated with 1 μM AtHMGB3 or 1 μM Pep1 peptide ([…]; synthesized by GenScript USA Inc.). […] Proteins were extracted using lacus buffer (25 mM Tris-HCl, pH 7.5, 15 mM MgCl2, 15 mM EGTA, 75 mM NaCl, 1 mM DTT, 0.1% NP-40, 5 mM p-nitrophenylphosphate, 60 mM β-glycerophosphate, 0.1 mM […], 1 mM NaF, 1 mM PMSF, 5 μg/ml leupeptin, 5 μg/ml aprotinin), and then centrifuged at 15,000 g for 10 min at 4 ° C. to remove cell debris.
(§1) Thus, these residues (R50 and K54) were mutated to Ala, and the resulting mutant AtHMGB3 tested for its ability to activate MPK3/6 and induce callose deposition in the absence or presence of SA. The R50A/K54A mutant AtHMGB3 retained its ability to activate MPK3/6 and induce callose deposition, but inhibition of these activities by SA was lost (FIG. 7H,I and FIG. 8).

HMGB1 = biological target: T2, HMGB1 (Homo sapiens, UniProt P09429); experiment: Cell migration assay with mouse embryonic fibroblasts, WT or Ptgs2-/-; assay type: cell-based; conditions: dose-dependent, both WT and Ptgs2−/− MEFs
T2 construct: (i) full length: residues 2-215; 6x His (cleaved yes); made in house; host or cells: Escherichia coli BL21
T2 sequence (P09429 2-215): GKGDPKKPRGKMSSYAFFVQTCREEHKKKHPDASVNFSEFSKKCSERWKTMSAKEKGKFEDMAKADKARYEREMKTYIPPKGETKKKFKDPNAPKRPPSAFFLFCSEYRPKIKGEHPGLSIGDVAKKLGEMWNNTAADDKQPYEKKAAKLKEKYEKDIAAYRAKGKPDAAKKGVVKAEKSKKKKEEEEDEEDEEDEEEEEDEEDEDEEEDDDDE
Description: Human HeLa cells were grown in T75 flasks in DMEM medium supplemented with penicillin (10,000 IU/mL) streptomycin ([…]), and 10% fetal calf serum. Ptgs2−/− MEFs were derived from Ptgs2−/− E16 mouse embryos, obtained from the mating of Ptgs2+/− mice purchased from Taconic Biosciences. PBMCs were isolated from buffy coats of donor blood (Hospital of Magenta, Milan, Italy) by Ficoll gradient centrifugation (Lymphoprep; AXIS-SHIELD. CD14+ monocytes were isolated by positive immunoselection (CD14 Microbeads; Miltenyi Biotec) according to the manufacturer's instructions, and differentiated into macrophages using X-Vivo medium supplemented with 1% heat inactivated human serum, GM-CSF, and M-CSF.
Cell migration was assayed using Boyden chambers (Venereau et al., 2012). The downside of PVP-free polycarbonate filters (8 μm pores; Millipore) was coated with 50 μg/ml fibronectin (Sigma). Serum-free DMEM (negative control), DMEM containing 0.1 nM fMLP (positive control; Sigma), or DMEM containing 1 nM HMGB1^RE or HMGB1^SS were placed in the lower chamber, together with different concentrations of SA (Sigma). The mouse 3T3 fibroblast cells were cultured in DMEM media supplemented with 10% CS until 90% confluence, washed twice with PBS to eliminate any floating cells, and harvested with trypsin. […]

HMGB1^RE [2] = biological target: T3, HMGB1^RE (Homo sapiens, UniProt P09429); experiment: Chemotaxis assay (Boyden chambers): HMGB1^RE-elicited migration of mouse 3T3 fibroblasts; assay type: cell-based
T3 construct: (i) full length: residues 2-215; 6x His (cleaved yes); made in house; host or cells: Escherichia coli BL21
T3 sequence (P09429 2-215): T2 sequence (P09429 2-215)
Description: (§2) Cell migration was assayed using Boyden chambers (Venereau et al., 2012). The downside of PVP-free polycarbonate filters (8 μm pores; Millipore) was coated with 50 μg/ml fibronectin (Sigma). Serum-free DMEM (negative control), DMEM containing 0.1 nM fMLP (positive control; Sigma), or DMEM containing 1 nM HMGB1^RE or HMGB1^SS were placed in the lower chamber, together with different concentrations of SA (Sigma). The mouse 3T3 fibroblast cells were cultured in DMEM media supplemented with 10% CS until 90% confluence, washed twice with PBS to eliminate any floating cells, and harvested with trypsin. 50,000 cells in 200 μL were added to the upper chamber, and cells were left to migrate for 3 h at 37° C. Non-migrating cells were removed with a cotton swab, and migrated cells were fixed with ethanol and stained with Giemsa.
(§3) HMGB1^RE acts as a chemo-attractant that mediates migration of several cell types, including monocytes, fibroblasts, mesoangioblasts, smooth muscle cells, and colon cancer cells (Venereau et al., 2012). To determine whether SA alters HMGB 1's chemo-attractant activity, a chemotaxis assay was performed with mouse 3T3 fibroblasts.

HMGB1^RE [3] = experiment: as above; assay type: cell-based; conditions: chemo-attractant and cytokine-inducing activities vs literature COX-2 inhibition
Description: as §2, §3

AtHMGB3 = biological target: T4, AtHMGB3 (Arabidopsis thaliana, UniProt P93047); experiment: Callose staining: AtHMGB3-induced callose deposition in Arabidopsis leaves; assay type: in vivo; design: providing a full length Arabidopsis thaliana HMGB1 or HMGB3 (AtHMGB1 or AtHMGB3) protein; 6x His; made in house; host or cells: Escherichia coli BL21; conditions: 100 nM AtHMGB3, 15 h
T4 sequence (P93047 1-141): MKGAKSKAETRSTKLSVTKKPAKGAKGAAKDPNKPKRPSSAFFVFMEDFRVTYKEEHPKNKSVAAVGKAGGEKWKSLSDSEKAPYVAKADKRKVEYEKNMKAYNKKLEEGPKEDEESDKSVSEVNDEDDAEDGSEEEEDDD
Description: (§4) Arabidopsis leaves were collected 15 h after infiltration with 100 nM AtHMGB3 or 100 nM Pep1, and then immediately immersed in alcoholic lactophenol (phenol:glycerol:lactic acid:water:ethanol=1:1:1:1:8) to destain the chlorophyll. To remove the background fluorescence, destained leaves were treated with toluidine blue O solution (0.05% toluidine blue O, 0.1 M sodium acetate, pH 4.4) for 30 min, and then rinsed twice with 150 mM K2HPO4 (pH 9.5). Callose was stained with aniline blue solution (0.02% aniline blue, 150 mM K2HPO4, pH 9.5) for 30 min in the absence of light. The aniline blue-stained leaves were mounted with 25% glycerol and analyzed using a Leica DM5500 epifluorescence microscope. The number of callose loci was quantified using an ImageJ (NIH).

R50A/K54A mutant AtHMGB3 [4] = biological target: T1, R50A/K54A mutant AtHMGB3; experiment: Callose deposition with mutant R50A/K54A AtHMGB3; conditions: in vivo
Description: as §4, §1

O=C(O)c1ccccc1O [SA, salicylic acid]
inhibition by SA of MPK3/6 activation by R50A/K54A AtHMGB3 (R50A/K54A mutant AtHMGB3 [1]): lost
inhibition of fibroblast migration in WT and Ptgs2-/- MEFs (HMGB1): effectively inhibited
IC50 (HMGB1^RE [2]; mouse 3T3 fibroblasts, 1 nM HMGB1^RE, read-out: IC50, inhibition of HMGB1^RE-elicited migration of fibroblasts): 3 to 4 µM
IC50 (HMGB1^RE [2]; read-out: IC50, inhibition of HMGB1^RE-induced chemotaxis): 3.26 to 4.34 µM
concentration inhibiting HMGB1 bioactivities, fold below that required to inhibit COX-2's enzyme activity (HMGB1^RE [3]): 10-50 fold
effect on AtHMGB3-induced callose deposition (AtHMGB3): completely suppressed
inhibition by SA of callose deposition induced by R50A/K54A AtHMGB3 (R50A/K54A mutant AtHMGB3 [4]): lost
